Laboratory results taken from paper PMC5786306, “An AKAP-Lbc-RhoA interaction inhibitor promotes the translocation of aquaporin-2 to the plasma membrane of renal collecting duct principal cells” (PLoS ONE, 2018).

How the values were obtained:
[1] = tested on: Gα12- or Gαq-mediated RhoA activation in HEK293 cells; experiment: Rhotekin pulldown of active RhoA in HEK293 cells; assay type: cell-based, human; conditions: 50 μM
Experimental: (§1) (A) Full length AKAP-Lbc (AKAP13) and the indicated GEFs were transiently expressed in HEK293 cells. […] (B) Scaff10 inhibits Gα12- but not Gαq-mediated RhoA activation. The indicated Gα12 and Gαq-mutants were transiently co-expressed with AKAP-Lbc and p63RhoGEF in HEK293 cells as indicated. The cells were left untreated or incubated with Scaff10 (50 μM). The fraction of active RhoA was determined using Rhotekin pulldown assays. Shown is one representative out of three experiments. All GEF constructs were in pCMV3a and Myc-tagged (30 ng per transfection). Expression of AKAP-Lbc, LARG and PDZ-RhoGEF is shown in Fig 7 of the main manuscript. […] Lower panel: Corresponding values of fluorescence to upper panel. […] Lower panel: Corresponding values of fluorescence to upper panel. (B) F norm = normalised fluorescence (fluoresence steady state/fluorescence initial state) indicated in ‰. […] The viability of the indicated cells was determined using a CellTiter-Glo®Luminescent Cell Viability Assay (Promega, Wisconsin, USA) according to the manufacturer's instructions. The assay is based on the quantification of ATP as an indicator of metabolically active cells. […] Viability was assessed after 1 and 24 h incubation with Scaff10-8 in the indicated concentrations. An equal volume of CellTiter-Glo Reagent was added, plates were shaken and luminescence monitored over time with the plates held at 22°C. […]

GST = GST (Schistosoma japonicum, UniProt P08515); experiment: ITC control with GST alone; assay type: binding
Sequence of GST (P08515 whole entry, the tested form may be a part): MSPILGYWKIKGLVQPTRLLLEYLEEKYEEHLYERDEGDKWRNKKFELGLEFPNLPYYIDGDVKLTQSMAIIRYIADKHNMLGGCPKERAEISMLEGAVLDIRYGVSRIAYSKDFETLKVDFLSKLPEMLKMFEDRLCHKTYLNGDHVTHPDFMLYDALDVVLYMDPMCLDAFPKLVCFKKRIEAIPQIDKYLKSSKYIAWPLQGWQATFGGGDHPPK
Experimental: ITC measurements were essentially carried out as previously described. The stabilizing RhoA mutant F25N [41] was purified as a GST-RhoA fusion in its GDP-bound form (final gel filtration purification step in 20 mM HEPES, pH 7.5, 150 mM NaCl, 2 mM DTT, 50 μM GDP). In order to exchange GDP against GTPγS, GST-RhoA loaded with GDP was incubated for 20 min in ITC nucleotide exchange buffer (50 mM HEPES, pH 7.5, 20 mM EDTA) at 25°C followed by three dilution and concentration steps in Amicon tubes (10,000 MWCO) using ITC dialysis buffer (50 mM HEPES, pH 7.4, 150 mM NaCl, 5 mM MgCl2, 2 mM β-mercaptoethanol). The nucleotide-loading state was confirmed by HPLC. All proteins used in ITC measurements were dialyzed overnight against ITC dialysis buffer. Protein concentrations were determined with NanoDrop ND-1000. GDP or GTPγS (final concentration 2 mM) and DMSO (2%) were added to the proteins prior to the ITC measurements. Scaff10-8 was dissolved in the same buffer (including 2% DMSO and 2 mM GDP or GTPγS). ITC measurements were performed on a VP-ITC (GE Healthcare, München, DE) at 15°C. Titrations were conducted using 14.8 μM Scaff10-8 in the cell and 235 μM (GST control), 222 μM (GST-RhoA, GDP-bound) or 210 μM (GST-RhoA, GTPγS-bound) in the syringe. The cell was stirred at 351 rpm and a total of 27 x 10 μl injections were added to the cell, separated by 240 s of equilibration. […]

viability of cells = experiment: CellTiter-Glo luminescent cell viability assay (ATP); assay type: cell-based; conditions: up to 100 μM, 1 and 24 h
Experimental: as §1

Compound	RhoA activation by constitutively active G12 (G12QL) with AKAP-Lbc [1]	RhoA activation through constitutively active Gq (GqRC) [1]	binding to GST control (GST)	viability of cells (ATP quantitation) (viability of cells)
COc1ccc(-c2coc3cc4oc(=O)c(C)c(C)c4cc23)cc1 [Scaff10, 3-(4-Methoxyphenyl)-5,6-dimethyl-furo[3,2-g]chromen-7-one]	abolished this activation	did not affect		
COc1ccc(-c2coc3cc4oc(=O)c(CCC(=O)O)c(C)c4cc23)cc1 [Scaff10-8, 3-[3-(4-Methoxyphenyl)-5-methyl-7-oxo-furo[3,2-g]chromen-6-yl] propanoic acid]			did not bind	did not affect the viability
